System: S. aureus
Test: Primary antibacterial screening
Format: cell-based
Conditions: Staphylococcus aureus
Procedure: The cytotoxicity of the same compounds was evaluated against human fibroblasts (hMRC-5) and mouse macrophages (PMM). All assays were carried out with parent benzylMD (PD, SD-A2′,5′, SD-A3′,5′) and control drug references.
The primary in vitro evaluation of test compounds at LMPH is performed against a broad panel of pathogens to allow proper evaluation of selectivity. Compound stock solutions are prepared in 100% DMSO at 20 mM. The compounds are serially pre-diluted (two-fold or four-fold) in DMSO followed by a further (intermediate) dilution in demineralized water to assure a final in-test DMSO concentration of <1%.

- IC50: 11.3 µM
Compound: CC[C@H]1OC(=O)[C@H](C)[C@@H](O[C@H]2C[C@@](C)(OC)[C@@H](O)[C@H](C)O2)[C@H](C)[C@@H](O[C@@H]2O[C@H](C)C[C@H](N(C)C)[C@H]2O)[C@](C)(O)C[C@@H](C)C(=O)[C@H](C)[C@@H](O)[C@]1(C)O [Erythromycin]

From article PMC13258496, “Synthesis of Methoxylated Benzoxanthones as Drug Metabolites of Antischistosomal Schistodiones—A Limited Environmental Risk” (Molecules, 2026)
